{"source": "patent US7875599B2", "about": "“C-17-heteroaryl steroidal CYP17 inhibitors/antiandrogens, in vitro biological activities, pharmacokinetics and antitumor activity” (University of Maryland, priority 2005, dated 2011)", "key": {"[1]": {"tested_on": "LAPC4 human prostate tumor xenograft", "test": "LAPC4 xenograft, second experiment (treatment from day after inoculation)", "type": "in vivo, mouse", "conditions": "0.15 mmol/kg twice-daily s.c.", "description": "The second in vivo experiment tests the ability of 5 to inhibit the growth of LAPC4 prostate cancer cells growing in SCID mice, and 16 (Chart 1), a previously identified potent CYP17 inhibitor/antiandrogen (Gregoriyev et al. and Njar et al., J. Med. Chem., 1998, 41, 902-912, above) and castration are used as reference treatments. In this experiment, treatment begins on the day that mice were inoculated subcutaneously with hormone-dependent LAPC4 cells and are castrated or injected sc twice daily with 5 or 16.\n(§1) In Vivo Antitumor Studies (LAPC-4 Prostate Cancer Xenografts): All animal studies are performed according to the guidelines and approval of the Animal Care Committee of the University of Maryland School of Medicine, Baltimore. Male severe combined immunodeficient (SCID) mice 4-6 weeks of age purchased from the National Cancer Institute-Frederick Cancer Research and Development Center (Fredrick, Md.) are housed in a pathogen-free environment under controlled conditions of light and humidity and allowed free access to food and water. Tumors are developed from LAPC4 cells inoculated subcutaneously (s.c.) in the mice essentially as previously described (21). LAPC4 cells are grown in IMEM with 15% FBS plus 1% PS and 10 nm DHT until 80% confluent. Cells are scraped into DPBS, collected by centrifugation, and resuspended in Matrigel (10 mg/ml) at 3×10^7 cells/ml. Mice are injected s.c. with 100 μl of the cell suspension at one site on each flank. Tumors are measured weekly with calipers, and tumor volumes are calculated by the formula: […]).\nIn the second experiment, mice are inoculated with LAPC4 cells and are divided into four groups of 5 mice each. The control and castrated group receiv vehicle, while the other two groups receiv either VN/85-1 (0.15 mmol/kg twice-daily, 9 a.m. and 5 p.m.) or 5 (0.15 mmol/kg twice-daily, 9 a.m. and 5 p.m.). These treatments are initiated one day after LAPC4 cell inoculation; continued for 14 weeks for control group, 19 weeks (for VN/85-1 and castration groups) and for 21 weeks for 5 treated group and tumors are measured and processed as described above.\nFIG. 7: The effects of 5, 16, and orchidectomy on the formation and growth of LAPC4 prostate tumors in male SCID mice. 3×10^7 LAPC-4 cells were injected s.c. into the dorsal flank of SCID mice. One group of mice was castrated. The other groups of mice received either vehicle or 5 (0.15 mmol/kg twice-daily) or 16 (0.15 mmol/kg twice-daily). Daily treatment with 5 or 16 was initiated 1 day after cell inoculation. Tumors volumes were measured weekly, and the percentage of change in tumor volume was determined after 16 weeks of treatment * Indicates significant difference of 5 versus control, castration and 16 at week 14 (P 0.00065, 0.05 and 0.0097, respectively). ** Indicates significant difference of 5 versus castration and 16 at week 16 (P=0.047 and 0.0047, respectively). ↓-↓↓: Period of reduced administered dose of 5."}, "[2]": {"conditions": "male, SCID, mouse, in vivo, 1 h", "protocol": "At the end of the experiment, the levels of 5 in the tumors and organs of the 5-treated mice are determined. […] This metabolite has the same retention time as the metabolite observed in the plasma (vide supra). […] The animals in the VN/124-1-treated group are sacrificed 1 h after the last VN/124-1 administration, and tumor, liver and testis are harvested and snap frozen in liquid nitrogen. Tissue samples are homogenized in phosphate buffer (pH=7.4, […]). […] The residue is reconstituted in 100 μL of the HPLC mobile phase, filtered through 0.2 μm Teflon filters and then analyzed by HPLC as described above."}, "[3]": {"target": "T1, CYP17 (Homo sapiens, UniProt P05093)", "T1 sequence (P05093 1-508)": "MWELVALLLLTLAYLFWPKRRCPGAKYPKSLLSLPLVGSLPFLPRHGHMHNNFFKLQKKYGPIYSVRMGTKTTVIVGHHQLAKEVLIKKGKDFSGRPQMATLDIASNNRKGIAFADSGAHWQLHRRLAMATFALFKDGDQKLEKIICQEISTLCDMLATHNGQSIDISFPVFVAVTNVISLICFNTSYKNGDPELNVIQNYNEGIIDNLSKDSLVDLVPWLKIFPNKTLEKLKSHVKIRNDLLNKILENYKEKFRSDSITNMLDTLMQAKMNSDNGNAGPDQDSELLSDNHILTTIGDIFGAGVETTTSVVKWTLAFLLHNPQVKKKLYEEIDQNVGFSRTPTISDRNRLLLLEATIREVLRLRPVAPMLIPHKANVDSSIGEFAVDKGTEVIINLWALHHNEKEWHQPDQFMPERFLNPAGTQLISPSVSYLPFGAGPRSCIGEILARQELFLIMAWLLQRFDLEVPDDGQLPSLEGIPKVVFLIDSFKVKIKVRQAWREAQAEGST", "test": "UV-vis difference spectroscopy, binding to heme iron of CYP17"}, "[4]": {"tested_on": "LNCaP cells", "test": "LNCaP cell growth, WST-1 viability assay", "conditions": "Homo sapiens, LNCaP, 168 h, read-out: IC50, inhibition of DHT-induced LNCaP cell proliferation, 1 nM DHT, 7 days, WST-1", "quoted_text": "To determine the effect of novel compounds on cell proliferation, cells are transferred into steroid-free medium three days prior to the start of the experiments. Steroid-free medium consisted of phenol red free RPMI supplemented with 5% dextran-coated, charcoal treated serum, and 1% penicillin/streptomycin solution. Growth studies are then performed by plating cells (3×10^4) in 24-well multi-well dishes (Corning, Inc. Corning, N.Y.). After a 24 hours attachment period, the medium is aspirated and replaced with steroid-free medium containing vehicle or the indicated concentration of DHT (1 nM) and compounds (0.1 μM-10 μM). Control wells are treated with vehicle (ethanol). This medium is changed every three days and the number of viable cells is compared by WST-1 [4-[3-(4-iodophenyl)-2-(4-nitrophenyl)-2H-5-tetrazolio]-1,3-benzene disulfonate] assay on the seventh day. Following incubation of cells for the above-mentioned time, 10% WST-1 solution is added to each well and incubated at 37° C. for three hours. Following incubation, plates are slightly shaken and immediately read at 450 nm with a scanning multi-well spectrophotometer. All results represent the average of a minimum of three wells. Additional control consists of medium alone with no cells.\nCells were grown in steroid-free medium before plating."}, "[5]": {"tested_on": "LAPC4 human prostate tumor xenograft", "test": "LAPC4 xenograft, first experiment (established tumors, 4 weeks of treatment)", "type": "in vivo, mouse", "conditions": "28 days", "protocol": "In the first experiment, the effect of compounds 5 and 6 on the growth of well-established LAPC4 prostate cancer tumors in SCID mice is determined, and castration is used as the reference treatment. Tumor-bearing mice are assigned (n=5/group) to receive one of two doses of 5 or 6 (0.15 mmol/kg once-daily or 0.15 mmol/kg twice-daily). Tumor volumes are measured weekly and compared with controls receiving vehicle or castrated mice.\nas §1\nIn the first experiment, LAPC4 tumors are allowed to grow for 8-10 weeks following inoculation. […] Mice are castrated under methoxyfluorane anesthesia. Compounds 5 and 6 were prepared at 17.2 mg/ml in a 0.3% solution of hydroxypropyl cellulose in saline, and mice receiv s.c. injections daily. Control and castrated mice are treated with vehicle only. Tumors are measured weekly for the 4 weeks of treatment and tumor volumes are calculated. At the end of the treatment period, the animals are sacrificed under halothane anesthesia; tumors are excised, weighed and stored at −80° C. Animals are also weighed weekly and monitored for general health status and signs of possible toxicity due to treatment.\nFIG. 6: In vivo antitumor activity of 5, 6 and orchidectomy on the growth of LAPC4 prostate tumors in male SCID mice. Groups of five mice with LAPC-4 tumors were treated with 5 (0.15 mmol/kg/day or 0.30 mmol/kg/day. Tumors volumes were measured weekly, and the percentage of change in tumor volume was determined after 28 days of treatment. The standard deviations of tumor volumes (not shown) were ±10-12% of the mean values."}}, "note": "“Also recorded” adds a separate entry of the source."}
{"smiles": "C[C@]12CC[C@H](O)CC1=CC[C@@H]1[C@@H]2CC[C@]2(C)C(n3cnc4ccccc43)=CC[C@@H]12", "note": "[Compound 5, 3β-Hydroxy-17-(1H-benzimidazol-1-yl)androsta-5,16-diene]", "values": [{"measurement": "increase of tumor volume", "setting": "[1]; week 14", "value": 0.5, "unit": "fold"}, {"measurement": "reduction of tumor volume versus control mice", "setting": "[1]; week 14 (b4 prints 50 mg/kg/twice daily)", "value": 93.8, "unit": "%"}, {"measurement": "concentration in the s.c. tumors", "setting": "[2]", "value": "39.0±8.4", "unit": "μg/mg tissue"}, {"measurement": "type of difference spectrum induced", "setting": "[3]", "value": "type II difference spectrum"}, {"measurement": "IC50", "setting": "[4]", "value": 6, "unit": "µM"}, {"measurement": "reduction of average final tumor volume compared to vehicle-treated control", "setting": "[5]; 0.15 mmol/kg once daily s.c.", "value": 41, "unit": "%"}, {"measurement": "reduction of average final tumor volume compared to vehicle-treated control", "setting": "[5]; 0.15 mmol/kg twice daily s.c.", "value": 86.5, "unit": "%"}]}
{"smiles": "C[C@]12CCC(=O)C=C1CC[C@@H]1[C@@H]2CC[C@]2(C)C(n3cnc4ccccc43)=CC[C@@H]12", "note": "[Compound 6, 17-(1H-benzimidazol-1-yl)androsta-4,16-diene-3-one]", "values": [{"measurement": "melting point", "value": "201 to 204", "unit": "°C"}, {"measurement": "reduction of average final tumor volume compared to vehicle-treated control", "setting": "[5]; 0.15 mmol/kg once daily s.c.", "value": "ineffective"}, {"measurement": "reduction of average final tumor volume compared to vehicle-treated control", "setting": "[5]; 0.15 mmol/kg twice daily s.c.", "value": "stimulation of tumor growth; also recorded: enhances tumor growth"}]}
